From BindingDB's records for doi:10.1128/AAC.00802-08 (University of Medicine and Dentistry of New Jersey, 2008)

Key:
[1] = molecular target: T1, 1,3-beta-D-glucan synthase catalytic subunit (Candida albicans, UniProt O13383); test: Inhibition of Candida albicans ATCC 90028 glucan synthase at monophasic kinetics
T1 sequence (O13383 whole entry): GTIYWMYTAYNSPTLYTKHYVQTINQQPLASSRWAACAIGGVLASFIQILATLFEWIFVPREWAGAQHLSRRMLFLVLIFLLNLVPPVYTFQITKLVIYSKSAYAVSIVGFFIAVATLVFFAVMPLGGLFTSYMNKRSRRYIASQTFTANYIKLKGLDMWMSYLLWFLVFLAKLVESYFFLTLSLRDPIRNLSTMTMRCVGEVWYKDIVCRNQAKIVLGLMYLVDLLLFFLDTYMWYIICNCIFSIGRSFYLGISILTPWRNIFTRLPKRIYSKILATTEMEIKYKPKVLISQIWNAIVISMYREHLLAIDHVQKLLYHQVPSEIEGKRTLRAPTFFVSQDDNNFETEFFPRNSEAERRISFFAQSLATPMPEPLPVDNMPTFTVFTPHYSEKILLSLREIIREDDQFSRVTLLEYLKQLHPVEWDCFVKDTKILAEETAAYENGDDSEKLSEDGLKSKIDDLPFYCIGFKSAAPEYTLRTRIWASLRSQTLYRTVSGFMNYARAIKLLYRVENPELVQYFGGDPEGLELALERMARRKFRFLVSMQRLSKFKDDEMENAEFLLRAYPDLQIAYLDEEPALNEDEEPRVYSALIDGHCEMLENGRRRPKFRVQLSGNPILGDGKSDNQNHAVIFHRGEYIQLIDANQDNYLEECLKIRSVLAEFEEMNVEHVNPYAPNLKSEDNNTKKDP

[2] = molecular target: T2, 1,3-beta-glucan synthase (Candida tropicalis, UniProt B6S6L8, S80P); test: Inhibition of Candida tropicalis T3 blood stream isolate glucan synthase subunit FKS1p with FLTLS/PLRDP mutant at monophasic kinetics
[3] = molecular target: T2, 1,3-beta-glucan synthase; test: Inhibition of Candida tropicalis T3 blood stream isolate glucan synthase subunit FKS1p with FLTLS/PLRDP mutant at biphasic kinetics
[4] = molecular target: T2, 1,3-beta-glucan synthase; test: Inhibition of Candida tropicalis T19 blood stream isolate glucan synthase subunit FKS1p with FLTLS/PLRDP mutant at monophasic kinetics
[5] = molecular target: T2, 1,3-beta-glucan synthase; test: Inhibition of Candida tropicalis T19 blood stream isolate glucan synthase subunit FKS1p with FLTLS/PLRDP mutant at biphasic kinetics
[6] = molecular target: 1,3-beta-glucan synthase (Candida tropicalis, UniProt B6S6L8, F76L); test: Inhibition of Candida tropicalis T26 blood stream isolate glucan synthase subunit FKS1p with LLTLSLRDP mutant at monophasic kinetics
1,3-beta-glucan synthase (Candida tropicalis, UniProt B6S6L8, F76L), sequence (B6S6L8 entry or part of it, stated change not applied): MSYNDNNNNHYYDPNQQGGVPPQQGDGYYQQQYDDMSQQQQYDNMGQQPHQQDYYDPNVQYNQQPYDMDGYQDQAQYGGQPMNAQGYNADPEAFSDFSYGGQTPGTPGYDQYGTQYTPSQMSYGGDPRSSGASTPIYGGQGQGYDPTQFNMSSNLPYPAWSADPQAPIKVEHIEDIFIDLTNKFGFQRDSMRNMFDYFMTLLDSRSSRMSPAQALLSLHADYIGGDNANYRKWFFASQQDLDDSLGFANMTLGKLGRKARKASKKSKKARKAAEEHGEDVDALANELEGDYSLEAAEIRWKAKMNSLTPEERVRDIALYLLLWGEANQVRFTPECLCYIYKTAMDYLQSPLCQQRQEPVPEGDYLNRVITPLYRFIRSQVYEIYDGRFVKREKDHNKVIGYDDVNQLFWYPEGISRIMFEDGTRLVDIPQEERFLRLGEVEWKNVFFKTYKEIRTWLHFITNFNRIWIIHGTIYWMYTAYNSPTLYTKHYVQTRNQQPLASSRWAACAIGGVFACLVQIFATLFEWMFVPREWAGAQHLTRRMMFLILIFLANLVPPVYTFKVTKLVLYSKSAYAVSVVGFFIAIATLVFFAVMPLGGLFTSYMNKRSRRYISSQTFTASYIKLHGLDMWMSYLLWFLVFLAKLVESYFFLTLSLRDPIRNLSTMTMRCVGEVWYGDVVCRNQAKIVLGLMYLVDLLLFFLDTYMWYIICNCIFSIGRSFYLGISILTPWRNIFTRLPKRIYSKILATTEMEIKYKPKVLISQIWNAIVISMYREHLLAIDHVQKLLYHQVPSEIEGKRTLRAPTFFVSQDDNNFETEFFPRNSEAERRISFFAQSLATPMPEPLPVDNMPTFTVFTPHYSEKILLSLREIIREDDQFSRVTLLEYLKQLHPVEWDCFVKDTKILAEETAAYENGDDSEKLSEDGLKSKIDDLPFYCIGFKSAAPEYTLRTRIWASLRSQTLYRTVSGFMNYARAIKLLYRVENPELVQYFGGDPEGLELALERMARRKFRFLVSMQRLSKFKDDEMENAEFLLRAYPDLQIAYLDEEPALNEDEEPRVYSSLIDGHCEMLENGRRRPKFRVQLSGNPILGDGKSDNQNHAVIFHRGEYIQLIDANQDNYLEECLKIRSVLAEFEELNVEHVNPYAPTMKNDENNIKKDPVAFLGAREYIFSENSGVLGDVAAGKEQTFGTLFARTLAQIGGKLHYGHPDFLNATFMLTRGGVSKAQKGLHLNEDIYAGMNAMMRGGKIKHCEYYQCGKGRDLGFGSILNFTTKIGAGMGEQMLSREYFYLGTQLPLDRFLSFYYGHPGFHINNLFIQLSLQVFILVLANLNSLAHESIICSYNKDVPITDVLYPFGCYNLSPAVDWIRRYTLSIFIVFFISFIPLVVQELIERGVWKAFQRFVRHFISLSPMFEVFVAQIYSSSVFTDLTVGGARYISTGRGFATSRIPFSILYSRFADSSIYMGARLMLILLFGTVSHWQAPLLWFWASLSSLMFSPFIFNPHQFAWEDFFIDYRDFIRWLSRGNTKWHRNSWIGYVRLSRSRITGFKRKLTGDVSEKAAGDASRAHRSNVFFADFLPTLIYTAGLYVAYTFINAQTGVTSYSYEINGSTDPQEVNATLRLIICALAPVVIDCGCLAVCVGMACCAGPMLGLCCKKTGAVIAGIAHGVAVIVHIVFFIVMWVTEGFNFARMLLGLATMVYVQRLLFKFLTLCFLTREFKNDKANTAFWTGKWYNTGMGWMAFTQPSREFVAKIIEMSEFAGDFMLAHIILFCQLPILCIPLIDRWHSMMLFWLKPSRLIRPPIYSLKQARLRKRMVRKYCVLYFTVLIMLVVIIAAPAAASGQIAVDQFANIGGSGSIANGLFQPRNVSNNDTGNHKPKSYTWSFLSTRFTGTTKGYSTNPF

T2 sequence (B6S6L8 entry or part of it, stated change not applied): as above

CCC(C)CC(C)CCCCCCCCC(=O)N[C@H]1C[C@@H](O)[C@@H](NCCN)NC(=O)[C@@H]2[C@@H](O)CCN2C(=O)[C@H]([C@H](O)CCN)NC(=O)[C@H]([C@H](O)[C@@H](O)c2ccc(O)cc2)NC(=O)[C@@H]2C[C@@H](O)CN2C(=O)[C@H]([C@@H](C)O)NC1=O (stereo partly specified) [CHEBI:474180]
IC50 [1]: 0.0005 µM
IC50 [2]: 0.000306 µM
IC50 [3]: 0.37 µM
IC50 [4]: 0.000296 µM
IC50 [5]: 0.264 µM
IC50 [6]: 0.077 µM
